Reference: patent publication US11013745B2, “Triazolopyrimidine, triazolopyridine compounds, and the composition thereof for treating PRC2-mediated diseases” (SHANGHAI INSTITUTE OF MATERIA MEDICA, CHINESE ACADEMY OF …, priority 2017, dated 2021)
Read-outs that look alike come from different tables or passages of the source.

Experiments:
PRC2 enzyme = PRC2 enzyme (Homo sapiens (Human), UniProt O75530); experiment: PRC2 enzyme activity, TR-FRET method; format: biochemical
Protocol: The TR-FRET method was used to measure the PRC2 enzyme activity. First, the enzyme was mixed with compounds at different concentrations and incubated for 30 min at room temperature. The biotin-labeled histone H3 peptide substrate and the cofactor S-adenosylmethionine (SAM) were added to initiate the enzymatic reaction. After reaction was performed at room temperature for 4 hour, Acceptor and Donor were added and incubated for half an hour. The multifunctional microplate reader EnVision (Perkin Elmer Inc.) was used to detect the fluorescence signal. Data were analyzed using GraphPad Prism 5.0 software, and IC50 values were obtained.

Pfeiffer cells = experiment: Pfeiffer cell growth inhibition in a long term (11 days), CellTiter-Glo; format: cell-based, Human; conditions: Homo sapiens, 264 h, read-out: Experiment on Pfeiffer cell growth inhibition in a long term (11 days IC50)
Protocol: Pfeiffer cells in exponential growth phase were seeded in a 24-well plate with a cell density of 1*10E5 cells/mL. Cells were treated on the same day with the compounds at different concentrations. At day 4 and day 7 of compound treatment, fresh media and compounds were changed. After treated with the compounds for 11 days, cell viability was measured using CellTiter-Glo reagent (Promega Corporation). The data was analyzed using GraphPad Prism 5.0 software and GI50 values were obtained.

[1] = Liver microsomal stability (mouse); format: in vitro ADME; conditions: mouse liver microsomes
[2] = Liver microsomal stability (rat); format: in vitro ADME; conditions: rat liver microsomes
Protocol: (§1) 1. JANUS and temperature control device was turned on. After being initialized, the pipes were flushed until there was no air bubble in the pipes.
(§2) 2. Preparation of buffers used for the experiment
(§3) Preparation of Tris pH 7.4 buffer (0.1 M): 12.12 g of Tris was dissolved in 1000 mL of H2O, the resulting solution was adjusted to pH 7.4 with 2N HCl, aliquoted at 50 mL per tube, and stored at −20° C.
(§4) Preparation of H2O/0.1% BSA buffer: 200 μL of 25% BSA was added to 50 mL of H2O.
(§5) Preparation of VIVID stock solution: 1 mg of VIVID was dissolved in 1 mL of acetonitrile, aliquoted at 50 μL per tube, and stored at −20° C.
(§6) Preparation of MgCl2 solution (100 mM): 1.016 g of MgCl2 was dissolved in 50 mL Tris pH 7.4 buffer, and aliquoted at 1 mL per tube, and stored at −20° C.
(§7) Preparation of NADPH solution (10 mM): 355 mg of NADPH was dissolved in 42.6 mL of Tris pH 7.4 buffer, aliquoted at 1.8 mL per tube, and stored at −20° C.
(§8) Preparation of Blank control: 7.937 mL of Tris, 163 μL of RLM, 450 μL of MgCl2 solution, 450 μL of NADPH solution and 9 mL of methanol were mixed uniformly, aliquoted at 1 mL per tube, and stored at −20° C.
(§9) 3. Preparation of Compound Working Solution
(§10) Dilution step 1:10 μL of compound stock solution was added to 90 μL of DMSO=1 mM stock solution.
(§11) Dilution step 2: 2 μL of 1 mM stock solution was added to 1 mL of H2O/0.1%6 BSA buffer=[…] working solution.
(§12) Dilution step 3: 245 μL of the working solution was added to a 96-well compound plate and added with 5 μL of VIVID stock solution.
(§13) The 96-well compound plate was shaken on a shaker for 5 min.
(§14) 4. The STM in the JANUS in the computer was open to run the EXCEL file, and the JANUS program was operated and run by following the instructions in the EXCEL file.
(§15) 5. After the JANUS program was finished, acetonitrile/water 50:50 (V/V) was added to column 20 of the 384-well black plate, and blank control was added to column 21 of the 384-well black plate.
(§16) 6. the plate (420 nm-465 nm) was read on a microplate reader to determine the VIVID fluorescence intensity.
(§17) 7. After the plate was sealed, shaken and centrifuged, the sample plate was subjected to the LC/MS instrument for sample analysis.
(§18) A profile of the logarithmic value of the remaining rate of the drug in the incubation system versus the incubation time was plotted, and the slope k was obtained by linear regression. The intrinsic clearance rate in vivo (Clint, mL/min/g) value, the clearance rate in vivo (Cl, mL)/min), liver clearance (Clhep, mL/min) and metabolic bioavailability (% MF) were predicted according to the following equations: […]

[3] = Liver microsomal stability (human); format: in vitro ADME
Protocol: as §1, §2, §3, §4, §5, §6, §7, §8, §9, §10, §11, §12, §13, §14, §15, §16, §17, §18

PRC2 enzyme, sequence (O75530 whole entry): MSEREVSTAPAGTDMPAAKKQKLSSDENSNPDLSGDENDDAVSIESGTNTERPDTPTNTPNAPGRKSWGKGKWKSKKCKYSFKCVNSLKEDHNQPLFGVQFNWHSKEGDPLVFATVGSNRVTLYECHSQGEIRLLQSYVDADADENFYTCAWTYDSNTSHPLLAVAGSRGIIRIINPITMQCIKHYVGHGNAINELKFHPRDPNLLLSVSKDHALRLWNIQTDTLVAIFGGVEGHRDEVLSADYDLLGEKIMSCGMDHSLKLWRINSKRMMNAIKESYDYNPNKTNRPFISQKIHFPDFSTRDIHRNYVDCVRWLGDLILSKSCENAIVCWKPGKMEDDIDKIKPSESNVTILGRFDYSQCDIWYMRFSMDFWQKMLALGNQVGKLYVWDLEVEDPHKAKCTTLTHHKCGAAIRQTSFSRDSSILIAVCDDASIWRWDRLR
PRC2 enzyme, sequence (Q15910 whole entry partner): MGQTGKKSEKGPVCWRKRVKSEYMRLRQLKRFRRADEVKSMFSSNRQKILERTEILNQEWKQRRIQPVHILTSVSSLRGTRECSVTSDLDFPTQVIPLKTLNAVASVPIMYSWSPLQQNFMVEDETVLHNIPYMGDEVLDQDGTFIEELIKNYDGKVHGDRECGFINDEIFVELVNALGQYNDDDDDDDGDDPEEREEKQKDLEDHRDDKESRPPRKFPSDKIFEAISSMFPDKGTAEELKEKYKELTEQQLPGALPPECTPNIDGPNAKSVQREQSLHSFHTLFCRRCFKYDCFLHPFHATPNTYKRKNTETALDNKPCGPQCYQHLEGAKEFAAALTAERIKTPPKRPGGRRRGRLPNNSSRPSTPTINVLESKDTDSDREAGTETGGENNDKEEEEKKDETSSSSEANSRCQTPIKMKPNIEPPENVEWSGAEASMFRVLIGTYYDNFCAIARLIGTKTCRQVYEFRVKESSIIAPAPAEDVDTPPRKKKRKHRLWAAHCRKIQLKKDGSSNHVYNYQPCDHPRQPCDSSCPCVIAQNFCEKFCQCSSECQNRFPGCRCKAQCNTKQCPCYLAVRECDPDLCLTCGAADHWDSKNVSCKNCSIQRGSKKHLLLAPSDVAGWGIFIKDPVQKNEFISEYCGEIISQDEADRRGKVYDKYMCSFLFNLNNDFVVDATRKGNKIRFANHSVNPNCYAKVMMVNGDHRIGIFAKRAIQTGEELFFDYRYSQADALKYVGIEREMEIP
PRC2 enzyme, sequence (Q15022 whole entry partner): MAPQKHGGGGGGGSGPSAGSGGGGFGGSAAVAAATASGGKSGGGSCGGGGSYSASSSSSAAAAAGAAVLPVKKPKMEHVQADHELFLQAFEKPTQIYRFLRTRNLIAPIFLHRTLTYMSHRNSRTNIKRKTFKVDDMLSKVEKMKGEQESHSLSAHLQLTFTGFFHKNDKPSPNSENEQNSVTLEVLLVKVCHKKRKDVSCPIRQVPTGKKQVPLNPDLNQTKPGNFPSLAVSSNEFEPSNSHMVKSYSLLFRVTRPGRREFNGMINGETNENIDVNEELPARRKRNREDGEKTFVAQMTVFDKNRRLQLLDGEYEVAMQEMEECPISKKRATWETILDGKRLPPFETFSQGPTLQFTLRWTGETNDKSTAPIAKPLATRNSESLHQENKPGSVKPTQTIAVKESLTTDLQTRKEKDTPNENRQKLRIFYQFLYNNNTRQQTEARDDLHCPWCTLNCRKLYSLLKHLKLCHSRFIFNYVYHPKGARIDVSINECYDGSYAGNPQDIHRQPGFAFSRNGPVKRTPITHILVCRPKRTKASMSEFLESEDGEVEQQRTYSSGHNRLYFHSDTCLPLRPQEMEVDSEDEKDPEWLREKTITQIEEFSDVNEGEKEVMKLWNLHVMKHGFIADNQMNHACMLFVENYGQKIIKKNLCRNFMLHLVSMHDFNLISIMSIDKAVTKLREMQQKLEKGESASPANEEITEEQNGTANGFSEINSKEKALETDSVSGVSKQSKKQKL

SMILES | IC50 (PRC2 enzyme) | IC50 (Pfeiffer cells; 11 days) | other results
Fc1ccc2c(c1CNc1ncc(C3=CCSCC3)c3nncn13)CCO2 [E-Y2] | 8 nM |  | 
C1=C(c2cnc(NCc3ccco3)n3cnnc23)CCSC1 [E-Y5] | 611 nM |  | 
CC(C)(C)OC(=O)N1CC=C(c2cnc(NCc3ccco3)n3cnnc23)CC1 [E-Y6] |  | 83 nM | 
CC(C)(C)OC(=O)NC1CC=C(c2cnc(NCc3ccco3)n3cnnc23)CC1 (stereo not shown) [E-Y9] |  | 320 nM | 
CS(=O)(=O)N1CCC(c2cnc(NCc3c(F)ccc4c3CCO4)n3cnnc23)CC1 [E-Y13-H] | 10.7 nM |  | 
Cc1ccc(S(=O)(=O)N2CC=C(c3cnc(NCc4c(F)ccc5c4CCO5)n4cnnc34)CC2)cc1 [E-Y14] | 101 nM |  | 
O=C(c1ccccc1)N1CC=C(c2cnc(NCc3c(F)ccc4c3CCO4)n3cnnc23)CC1 [E-Y16] | 17.7 nM | 4.8 nM | 
CCNC(=O)N1CC=C(c2cnc(NCc3c(F)ccc4c3CCO4)n3cnnc23)CC1 [E-Y17] |  | 2.7 nM | 
CC(C)(C)NC(=O)N1CC=C(c2cnc(NCc3c(F)ccc4c3CCO4)n3cnnc23)CC1 [E-Y18] | 21 nM | 2.7 nM | 
CCNC(=S)N1CC=C(c2cnc(NCc3c(F)ccc4c3CCO4)n3cnnc23)CC1 [E-Y19] | 9.3 nM |  | IC50 (Pfeiffer cells): 3 nM
CC(=O)N1CCC(c2cnc(NCc3ccco3)n3cnnc23)CC1 [E-Y20-H] | 93.9 nM |  | 
CC(=O)N1CC=C(c2cnc(NCc3ccco3)n3cnnc23)CC1 [E-Y20] | 166 nM | 158 nM | 
O=C(c1ccccc1)N1CC=C(c2cnc(NCc3ccco3)n3cnnc23)CC1 [E-Y21] | 351 nM | 185 nM | 
CS(=O)(=O)N1CC=C(c2cnc(NCc3ccco3)n3cnnc23)CC1 [E-Y22] | 334 nM |  | 
Cc1ccc(S(=O)(=O)N2CC=C(c3cnc(NCc4ccco4)n4cnnc34)CC2)cc1 [E-Y23] | 350 nM | 107 nM | 
CC(C)(C)NC(=O)N1CC=C(c2cnc(NCc3ccco3)n3cnnc23)CC1 [E-Y25] | 373 nM |  | 
Cc1ccc(NC(=O)N2CC=C(c3cnc(NCc4ccco4)n4cnnc34)CC2)cc1 [E-Y26] | 91 nM |  | 
CC(=O)NC1CC=C(c2cnc(NCc3ccco3)n3cnnc23)CC1 (stereo not shown) [E-Y30] | 793 nM |  | 
O=C(NC1CC=C(c2cnc(NCc3ccco3)n3cnnc23)CC1)c1ccccc1 (stereo not shown) [E-Y31] | 758 nM |  | 
CS(=O)(=O)NC1CC=C(c2cnc(NCc3ccco3)n3cnnc23)CC1 (stereo not shown) [E-Y32] | 342 nM |  | 
CC(F)(F)C(=O)N1CC=C(c2cnc(NCc3ccco3)n3cnnc23)CC1 [E-Y34] | 907 nM |  | 
CN(C)CC(=O)N1CC=C(c2cnc(NCc3ccco3)n3cnnc23)CC1 [E-Y35] | 318 nM |  | 
O=C(CN1CCOCC1)N1CC=C(c2cnc(NCc3ccco3)n3cnnc23)CC1 [E-Y36] | 543 nM | 289 nM | 
O=C(NC(=S)N1CC=C(c2cnc(NCc3c(F)ccc4c3CCO4)n3cnnc23)CC1)c1ccccc1 [E-Y39] | 54.5 nM |  | 

SMILES | IC50 (PRC2 enzyme) | IC50 (Pfeiffer cells; 11 days) | other results
O=C(c1cnco1)N1CC=C(c2cnc(NCc3c(F)ccc4c3CCO4)n3cnnc23)CC1 [E-Y41] | < 20 nM | 4.5 nM | 
O=C(OCc1ccccc1)N1CC=C(c2cnc(NCc3c(F)ccc4c3CCO4)n3cnnc23)CC1 [E-Y44] | 85.8 nM | 2.3 nM | 
C=CC(=O)N1CC=C(c2cnc(NCc3c(F)ccc4c3CCO4)n3cnnc23)CC1 [E-Y45] | 3.4 nM | 1.8 nM | 
CCNC(=O)N1CCC(c2cnc(NCc3c(F)ccc4c3CCO4)n3cnnc23)CC1 [E-Y48] | 5.4 nM | 15.9 nM | 
CC(C)(C)NC(=O)N1CCC(c2cnc(NCc3c(F)ccc4c3CCO4)n3cnnc23)CC1 [E-Y49] | 6.6 nM | 10 nM | 
CC(C)(C)OC(=O)N1CC=C(c2cc(C#N)c(NCc3ccco3)n3cnnc23)CC1 [E-Y51] | 200 nM |  | 
CN(C)CC(=O)N1CC=C(c2cnc(NCc3c(F)ccc4c3CCO4)n3cnnc23)CC1 [E-Y54-H] | 5 nM |  | Clearance rate in vivo Clint In Vivo Extpl [1]: 1.21 mL/min; Half life T-half [1]: 1.95 h; Intrinsic clearance rate in vivo Clint In Vitro [1]: 17.9 mL/min/gprot; Liver clearance rate Clint Hep In Vivo Extpl [1]: 0.862 mL/min; Metabolic bioavailability MF % [1]: 71.3%; Clearance rate in vivo Clint In Vivo Extpl [2]: 4.26 mL/min; Half life T-half [2]: 3.7 h; Intrinsic clearance rate in vivo Clint In Vitro [2]: 9.47 mL/min/gprot; Liver clearance rate Clint Hep In Vivo Extpl [2]: 3.51 mL/min; Metabolic bioavailability MF % [2]: 82.4%; Clearance rate in vivo Clint In Vivo Extpl ([3]; human liver microsomes): 336 mL/min; Half life T-half ([3]; human liver microsomes): 7.98 h; Intrinsic clearance rate in vivo Clint In Vitro ([3]; human liver microsomes): 4.39 mL/min/gprot; Liver clearance rate Clint Hep In Vivo Extpl ([3]; human liver microsomes): 274 mL/min; Metabolic bioavailability MF % ([3]; human liver microsomes): 81.7%
CN(C)CC(=O)N1CC=C(c2cnc(NCc3c(F)ccc4c3CCO4)n3cnnc23)CC1 [E-Y54] | 4.1 nM |  | Clearance rate in vivo Clint In Vivo Extpl [1]: 3.86 mL/min; Half life T-half [1]: 0.613 h; Intrinsic clearance rate in vivo Clint In Vitro [1]: 57.1 mL/min/gprot; Liver clearance rate Clint Hep In Vivo Extpl [1]: 1.69 mL/min; Metabolic bioavailability MF % [1]: 43.7%; Clearance rate in vivo Clint In Vivo Extpl [2]: 10.0 mL/min; Half life T-half [2]: 1.57 h; Intrinsic clearance rate in vivo Clint In Vitro [2]: 22.3 mL/min/gprot; Liver clearance rate Clint Hep In Vivo Extpl [2]: 6.67 mL/min; Metabolic bioavailability MF % [2]: 66.6%; Clearance rate in vivo Clint In Vivo Extpl ([3]; human liver microsomes): 188 mL/min; Intrinsic clearance rate in vivo Clint In Vitro ([3]; human liver microsomes): 2.46 mL/min/gprot; Liver clearance rate Clint Hep In Vivo Extpl ([3]; human liver microsomes): 167 mL/min; half-life ([3]; human, liver microsomes, pH 7.4, human liver microsomes, read-out: Half life T-half): 14.2 h; bioavailability ([3]; human, liver microsomes, pH 7.4, human liver microsomes, read-out: Metabolic bioavailability MF %): 88.8%
CC(=O)N1CCC=C(c2cnc(NCc3c(F)ccc4c3CCO4)n3cnnc23)CC1 [SL-E13] | 3.3 nM | 6 nM | 
CS(=O)(=O)N1CCC=C(c2cnc(NCc3c(F)ccc4c3CCO4)n3cnnc23)CC1 [SL-E14] | 1.7 nM |  | 
CN1CCC(c2cnc(NCc3c(F)ccc4c3CCO4)n3cnnc23)CC1 [SL-E25] | 15 nM |  | 
CN1CCC(c2cnc(NCc3c(F)ccc4c3CCO4)n3cnnc23)CC1=O (stereo not shown) [SL-E26] | 8.4 nM |  | 
Fc1ccc2c(c1CNc1ncc(C3CCCOCC3)c3nncn13)CCO2 (stereo not shown) [SL-ZYE-08] | 11.9 nM |  | 
C1=C(c2cnc(NCc3cccc4c3CCO4)n3cnnc23)CCOC1 [SL-ZYE-11] | 17.9 nM |  | 
c1cc(CNc2ncc(C3CCOCC3)c3nncn23)c2c(c1)OCC2 [SL-ZYE-14] | 84 nM |  | 
C1=C(c2cnc(NCc3cccc4occc34)n3cnnc23)CCOC1 [SL-ZYE-17] | 56 nM |  | 
CC(C)(C)OC(=O)N1CC=C(c2cnc(NCc3cccc4occc34)n3cnnc23)CC1 [SL-ZYE-18] | 115 nM |  | 
CC1C=C(c2cnc(NCc3c(F)ccc4c3CCO4)n3cnnc23)CC(C)N1C(=O)OC(C)(C)C (stereo not shown) [SL-ZYE-23] | 47.6 nM |  | 
O=S1(=O)CCC(c2cnc(NCc3c(F)ccc4c3CCO4)n3cnnc23)CC1 [SL-ZYE-34] | 3.2 nM |  | 
CC1(C)C=C(c2cnc(NCc3c(F)ccc4c3CCO4)n3cnnc23)CCO1 [SL-ZYE-120] | 3.6 nM |  | 
CC1(C)CC(c2cnc(NCc3c(F)ccc4c3CCO4)n3cnnc23)CCO1 (stereo not shown) [SL-ZYE-121] | 4.2 nM |  | 
COC(=O)N1CC=C(c2cnc(NCc3c(F)ccc4c3CCO4)n3cnnc23)CC1 [SL-ZYE-147] |  | 1 to 3 nM | 
COC(=O)N1CCC=C(c2cnc(NCc3c(F)ccc4c3CCO4)n3cnnc23)CC1 [SL-ZYE-183] | 2.2 nM |  | 
CC1(C)C=C(c2cnc(NCc3c(F)ccc4c3CCO4)n3cnnc23)CC(C)(C)O1 [SL-ZYE-195] | 22.3 nM |  | 
